Where two headings read alike, the source gives them in different places.

Holding throughout (type): cell-based
One series concerns V-ATPase. Kind of series: V-ATPase ELISA (Human V-Type Proton ATPase ELISA kit) on treated MDAMB231 cells. The following applies: 100 nM (0.1 μM)/10,000 cells, 48 hours. On the procedure: An ELISA test was performed using Human V-Type Proton ATPase ELISA kit (My BioSource Catlog no: MBS911862) to determine the V-ATPase inhibitory effect of the compounds of the present invention.
Procedure: 1.0 million cells of MDAMB231 (cell line rich in V-ATPase) were plated on 60 mm plates for 24 hours at 37° C. and 5% CO2. The cells were treated with the test compounds (Formula A to U) at a concentration of 100 nM (0.1 μM)/10,000 cells and incubated for 48 hours. After incubation the supernatant was discarded, the cells were washed with D.P.B.S. (Dulbecco's phosphate-buffered saline), scraped and stored at −80° C. for 48 hours. The cells were thawed, vortexed, homogenized for 7 minutes, followed by centrifugation for 3 minutes at 3000 R.P.M. The supernatant was taken for V-ATPase Assay.
Standards and samples were pipetted into the wells. Antibody specific for V-ATPase was pre-coated onto a microplate. Any V-ATPase present in the standard /sample would get bound by the immobilized antibody. After the incubation period any unbound substances were removed by washing and a biotin-conjugated antibody specific for V-ATPase was added to the wells and plates were re-incubated at 37° C. and 5% CO2. After washing, avidin conjugated Horseradish Peroxidase (HRP) was added to the wells. Following a wash to remove any unbound avidin-enzyme reagent, a substrate solution was added to the wells and colour developed was in proportion to the amount of V-ATPase bound in the initial step. The colour development was stopped, and the optical density was measured at 450 nm spectrophotometrically. The concentration of V-ATPase was then calculated by substituting the optical density in the regression equation obtained from the standards. Percent (%) reduction in V-ATPase was calculated by subtracting the amount of V-ATPase obtained from the untreated/conc. of V-ATPase in untreated X100.
For orientation: In an ELISA, binding on a coated surface is turned into a signal by an enzyme label.

Series [1] relates to SARS-CoV-2. Put plainly: Neutral Red reduction of virus-induced cytopathic effect (primary CPE assay) in Vero 76 cells. The following applies: Severe acute respiratory syndrome coronavirus 2, virus-inhibitory.
Series [2] can be described thus: Neutral Red toxicity assay, uninfected cultures. The note with it: African green monkey, Vero 76 cells (uninfected monolayers), cell-inhibitory. The procedure:
Confluent or near-confluent cell culture monolayers of Vero 76 cells were prepared in 96-well disposable microplates the day before testing. Cells were maintained in MEM (Minimum Essential Medium Eagle) supplemented with 5% FBS (Fetal Bovine Serum). For antiviral assays the same medium was used but with FBS reduced to 2% and supplemented with 50-μg/ml gentamicin.
Compounds were dissolved in DMSO, saline or the diluent. […] The test compound was prepared at four serial log10 concentrations, usually 0.1, 1.0, 10, and 100 μg/ml or μM. Lower concentrations were used when insufficient compound was supplied. Five microwells were used per dilution: three for infected cultures and two for uninfected toxicity cultures. Controls for the experiment consisted of six microwells that were infected and not treated (virus controls) and six that were untreated and uninfected (cell controls) on every plate. A known active drug was tested in parallel as a positive control drug using the same method as was applied for test compounds. The positive control was tested with every test run.
Growth media was removed from the cells and the test compound was applied in 0.1 ml volume to wells at 2× concentration. Virus, normally at ˜60 CCID50 (50% cell culture infectious dose) in 0.1 ml volume is added to the wells designated for virus infection. Medium devoid of virus was placed in toxicity control wells and cell control wells. […] The plates were then stained with 0.011% neutral red for approximately two hours at 37° C. in a 5% CO2 incubator. The neutral red medium was removed by complete aspiration, and the cells may be rinsed 1× with phosphate buffered solution (PBS) to remove residual dye. The PBS was completely removed, and the incorporated neutral red was eluted with 50% Sorensen's citrate buffer/50% ethanol for at least 30 minutes. Neutral red dye penetrates into living cells, thus, the more intense the red color, the larger the number of viable cells present in the wells. The dye content in each well was quantified using a spectrophotometer at 540 nm wavelength. The dye content in each set of wells was converted to a percentage of dye present in untreated control wells using a Microsoft Excel computer-based spreadsheet and normalized based on the virus control. The 50% effective (EC50, virus-inhibitory) concentrations and 50% cytotoxic (CC50, cell-inhibitory) concentrations are then calculated by regression analysis. The quotient of CC50 divided by EC50 gives the selectivity index (SI) value.

Series [3] relates to Human Peripheral Blood Lymphocytes. Put plainly: MTT toxicity assay on normal cells. The note with it: 48 hours. The procedure: Toxicity studies of compounds of the present invention on normal cells The toxicity study was performed on Human Peripheral Blood Lymphocytes obtained differential centrifugation of defibrinated blood. MTT assay for compound of the present invention was performed to determine its toxicity. MTT assay is a simple and sensitive assay where, metabolic reducing activity of the cells is measured. It was carried out in the following manner.
A required volume of cell suspension was prepared as per the cell plating efficiency. 200 μl of prepared cell suspension was added in labelled 96 well plates and the plates were placed in an incubator for 18-24 hours at 37° C. and 5% CO2. Then, 2 μl of respective compound dilution was added and the plates were placed in the incubator for 48 hours at 37° C. and 5% CO2. The suspension was aspirated from the plates and 100 μl of working MTT solution (0.5 mg/ml MTT prepared from 5 mg/ml MTT stock in 1× complete media) was added. The plates were incubated in the incubator for 4 hours at 37° C. and 5% CO2. The plates were spinned down, supernatant removed, 200 μl DMSO was added, mixed gently and placed in the incubator for 10 minutes at 37° C. and 5% CO2. The absorbance at 570 nm was read and percentage viability and IC50 value of the compounds was calculated using regression analysis.
For orientation: Tetrazolium assays rely on reduction of a dye to a coloured formazan, in cell work by metabolically active cells.

The subject of series [4] is SARS-CoV-2. Put plainly: Anti SARS-CoV-2 IC50 estimation by qRT-PCR in VeroE6 cells. The note with it: Severe acute respiratory syndrome coronavirus 2, Vero C1008, 48 h.
A short description of series [5]: Cytotoxicity by Hoechst 33342 / Sytox orange staining. The note with it: African green monkey, Vero E6 cells. The procedure:
The assay was done in a 96 well plate format in 3 wells for each sample. 1×10e4 Vero E6 cells were plated per well and incubated at 37° C. overnight for monolayer formation. Next day, cells were incubated with the test substance (TS) at the indicated concentration with final DMSO concentration being 0.5%. The Control cells were incubated with 0.5% DMSO only. 24 and 48 hours later, cells were stained with Hoechst 33342 and Sytox orange dye. Images were taken at 10×, 16 images per well, which covers 90% of the well area using ImageXpress Microconfocal (Molecular Devices). Hoechst 33342 nucleic acid stain is a popular cell-permanent nuclear counterstain that emits blue fluorescence when bound to dsDNA. It stains all the live and dead cells. Sytox orange dye stains the nucleic acid in the cells with compromised membranes. This stain is an indicator of cell death. First, the software will count total number of cells in the Hoechst image. In the Sytox image, it will count, among Hoechst positive cells, how many cells are positive for Sytox.

The test system of series [6] is SARS-CoV-2. Kind of series: Antiviral screening by qRT-PCR in VeroE6 cells.

`COc1cc2c(OC3OCC(OC)C(OC)C3O)c3c(c(-c4ccc5c(c4)OCO5)c2cc1OC)C(=O)OC3` (stereo not shown) [Compound of Formula A, 9-(benzo[d][1,3]dioxol-5-yl)-6,7-dimethoxy-4-(tetrahydro-3-hydroxy-4,5-dimethoxy-2H-pyran-2-yloxy)naphtho[2,3-c]furan-1(3H)-one]: the “reduction of V-ATPase (%)” value with V-ATPase was found to be 13.31%. In the series with SARS-CoV-2 [1], this molecule registered an EC50 of over 0.1 µg/mL. Moreover, in series [2], the CC50 is under 0.1 µg/mL.

For the molecule `CCOC(=O)c1c(C(=O)OCC)c(-c2ccc3c(c2)OCO3)c2cc(OC)c(OC)cc2c1OC1OCC(OC)C(OC)C1O` (stereo not shown) [Compound of Formula D, diethyl 1-(benzo[d][1,3]dioxol-5-yl)-6,7-dimethoxy-4-(tetrahydro-3-hydroxy-4,5-dimethoxy-2H-pyran-2-yloxy)naphthalene-2,3-dicarboxylate], in the series on V-ATPase, the “reduction of V-ATPase (%)” value stood at 18.2%. Moreover, the “IC50 (μM)” value in series [3] is recorded as “No activity (Nontoxic)”. In the series with SARS-CoV-2 [1], this molecule gave an EC50 of 32 µg/mL. This molecule showed a CC50 in series [2] of 40 µg/mL.

For the molecule `O[C@H]1[C@H](O)COC(Oc2ccc(-c3ccc4c(c3)OCO4)c3ccccc23)[C@@H]1O` (stereo partly drawn) [Compound of Formula F, (3R,4S,5R)-2-(1-(benzo[d][1,3]dioxol-5-yl)naphthalen-4-yloxy)-tetrahydro-2H-pyran-3,4,5-triol], the “reduction of V-ATPase (%)” value in the series with V-ATPase is 61.0%. Besides, in the series with SARS-CoV-2 [1], a half-maximal effect (EC50) was put at 2.9 µg/mL. Moreover, the CC50 in series [2] was 32 µg/mL.

On to `COc1cc2c(OCCCCN3CCOCC3)c3c(c(-c4ccc5c(c4)OCO5)c2cc1OC)C(=O)OC3` [Compound of Formula L, 4-(4-morpholinobutoxy)-9-(benzo[d][1,3]dioxol-5-yl)-6,7-dimethoxynaphtho[2,3-c]furan-1(3H)-one], for which the “reduction of V-ATPase (%)” value with V-ATPase turned out to be 21.0%. The “IC50 (μM)” value in series [3] is recorded as “No activity (Nontoxic)”. The same molecule gave an EC50 in the series with SARS-CoV-2 [1] of over 0.34 µg/mL. In series [2], this molecule displayed a CC50 of 0.34 µg/mL.

As to `c1ccc2c(-c3ccc4c(c3)OCO4)ccc(OCCN3CCOCC3)c2c1` [Compound of Formula O, 4-(2-(1-(benzo[d][1,3]dioxol-5-yl)naphthalen-4-yloxy)ethyl)morpholine], in the series with V-ATPase, the “reduction of V-ATPase (%)” value is recorded as 20.26%. Moreover, in series [3], the “IC50 (μM)” value was “No activity (Nontoxic)”.

For `COc1cccc(-c2ccc(OCCN3CCOCC3)c3ccccc23)c1` [Compound of Formula P, 4-(2-(1-(3-methoxyphenyl)naphthalen-4-yloxy)ethyl)morpholine], the “reduction of V-ATPase (%)” value with V-ATPase is given as 18.27%. Further, the “IC50 (μM)” value in series [3] is “No activity (Nontoxic)”.

Consider `COc1ccc(-c2ccc(OCCN3CCOCC3)c3ccccc23)cc1OC` [Compound of Formula U, 4-(2-(1-(3,4-dimethoxyphenyl)naphthalen-4-yloxy)ethyl)morpholine], for which, in the series with V-ATPase, the “reduction of V-ATPase (%)” value came out at 16.57%. Besides, in series [3], the “IC50 (μM)” value is given as “No activity (Nontoxic)”.

On to `CCC(CC)COC(=O)[C@H](C)N[P@](=O)(OC[C@H]1O[C@@](C#N)(c2ccc3c(N)ncnn23)[C@H](O)[C@@H]1O)Oc1ccccc1` [Remdesivir, reference compound], for which the figures for the IC50 with SARS-CoV-2 [4] (read-out: IC50 value (μM) E gene) and in the series on SARS-CoV-2 [4] (read-out: IC50 value (μM) N gene) were 0.15 µM and 0.11 µM, respectively. The viability at 24 h, 10 µM in series [5] (24 hours, read-out: % Cell viability 24 hours) stood at 99.2%. Further, the viability at 48 h, 10 µM in series [5] (48 hours, read-out: % Cell viability 48 hours) amounted to 94.4%. For the same molecule, the inhibition at 10 µM in the series with SARS-CoV-2 [6] (Severe acute respiratory syndrome coronavirus 2, Vero C1008, 24 h, read-out: % inhibition of virus replication 24 hours post infection E) turned out to be 82.4%; in the series on SARS-CoV-2 [6] (Severe acute respiratory syndrome coronavirus 2, Vero C1008, 24 h, read-out: % inhibition of virus replication 24 hours post infection N), 80.3%; in the series with SARS-CoV-2 [6] (Severe acute respiratory syndrome coronavirus 2, Vero C1008, 48 h, read-out: % inhibition of virus replication 48 hours post infection E) it was 99.8%; with SARS-CoV-2 [6] (Severe acute respiratory syndrome coronavirus 2, Vero C1008, 48 h, read-out: % inhibition of virus replication 48 hours post infection N), 99.9%.

The term EC50 denotes the concentration giving half of the maximal effect. Usually CC50 stands for the concentration that lowers cell viability or growth by half. Read a low CC50 as greater toxicity to the cells. One may read the IC50 as the concentration that inhibits the measured activity by half. The viability is a read-out of living cells in per cent, often relative to untreated cells. One may read the inhibition as the relative decrease from the control value, in per cent.

The values above are taken from US20230172958A1, “USE OF COMPOUNDS FOR TREATING VIRAL INFECTIONS” (priority 2020, published 2023).
